From PubChem BioAssay (NCI)
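Values below derive from 48-hour exposures of cells grown in 96-well plates, with endpoints linearly interpolated between the two concentrations bracketing the appropriate inhibition level. The concentration for full growth arrest is given as TGI.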

How the values were obtained:
Assay in all cases: inhibition of tumour cell growth, NCI panel, 48 h
786-0 renal = system: 786-0 renal
A498 renal = system: A498 renal
A549 NSCLC = system: A549 NSCLC
ACHN renal = system: ACHN renal
CAKI-1 renal = system: CAKI-1 renal
CCRF-CEM leukemia = system: CCRF-CEM leukemia
COLO 205 colon = system: COLO 205 colon
DLD-1 colon = system: DLD-1 colon
DMS 273 small cell lung = system: DMS 273 small cell lung
EKVX NSCLC = system: EKVX NSCLC
HCC-2998 colon = system: HCC-2998 colon
HCT-15 colon = system: HCT-15 colon
HL-60(TB) leukemia = system: HL-60(TB) leukemia
HOP-18 NSCLC = system: HOP-18 NSCLC
HOP-92 NSCLC = system: HOP-92 NSCLC
HT29 colon = system: HT29 colon
IGROV1 ovarian = system: IGROV1 ovarian
K-562 leukemia = system: K-562 leukemia
KM12 colon = system: KM12 colon
KM20L2 colon = system: KM20L2 colon
LOX IMVI melanoma = system: LOX IMVI melanoma
LXFL 529 NSCLC = system: LXFL 529 NSCLC
M14 melanoma = system: M14 melanoma
M19-MEL melanoma = system: M19-MEL melanoma
MALME-3M melanoma = system: MALME-3M melanoma
MOLT-4 leukemia = system: MOLT-4 leukemia
NCI-H226 lung = system: NCI-H226 lung
NCI-H23 lung = system: NCI-H23 lung
NCI-H460 lung = system: NCI-H460 lung
NCI-H522 lung = system: NCI-H522 lung
OVCAR-3 ovarian = system: OVCAR-3 ovarian
OVCAR-4 ovarian = system: OVCAR-4 ovarian
OVCAR-5 ovarian = system: OVCAR-5 ovarian
OVCAR-8 ovarian = system: OVCAR-8 ovarian
RPMI-8226 leukemia = system: RPMI-8226 leukemia
RXF 393 renal = system: RXF 393 renal
RXF-631 renal = system: RXF-631 renal
SF-268 CNS = system: SF-268 CNS
SF-295 CNS = system: SF-295 CNS
SF-539 CNS = system: SF-539 CNS
SK-MEL-2 melanoma = system: SK-MEL-2 melanoma
SK-MEL-28 melanoma = system: SK-MEL-28 melanoma
SK-MEL-5 melanoma = system: SK-MEL-5 melanoma
SK-OV-3 ovarian = system: SK-OV-3 ovarian
SN12C renal = system: SN12C renal
SNB-19 CNS = system: SNB-19 CNS
SNB-75 CNS = system: SNB-75 CNS
SW-620 colon = system: SW-620 colon
TK-10 renal = system: TK-10 renal
U251 CNS = system: U251 CNS
UACC-257 melanoma = system: UACC-257 melanoma
UACC-62 melanoma = system: UACC-62 melanoma
UO-31 renal = system: UO-31 renal
XF 498 CNS = system: XF 498 CNS
DMS 114 small cell lung = system: DMS 114 small cell lung
HCT-116 colon = system: HCT-116 colon
HOP-62 NSCLC = system: HOP-62 NSCLC
SNB-78 CNS = system: SNB-78 CNS

Cc1cccc(N(CC(=O)O)S(=O)(=O)c2ccccc2)c1
TGI (786-0 renal): > 100 µM
TGI (A498 renal): > 100 µM
TGI (A549 NSCLC): > 100 µM
TGI (ACHN renal): > 100 µM
TGI (CAKI-1 renal): > 100 µM
TGI (CCRF-CEM leukemia): > 100 µM
TGI (COLO 205 colon): > 100 µM
TGI (DLD-1 colon): > 100 µM
TGI (DMS 273 small cell lung): > 100 µM
TGI (EKVX NSCLC): > 100 µM
TGI (HCC-2998 colon): > 100 µM
TGI (HCT-15 colon): > 100 µM
TGI (HL-60(TB) leukemia): > 100 µM
TGI (HOP-18 NSCLC): > 100 µM
TGI (HOP-92 NSCLC): > 100 µM
TGI (HT29 colon): > 100 µM
TGI (IGROV1 ovarian): > 100 µM
TGI (K-562 leukemia): > 100 µM
TGI (KM12 colon): > 100 µM
TGI (KM20L2 colon): > 100 µM
TGI (LOX IMVI melanoma): > 100 µM
TGI (LXFL 529 NSCLC): > 100 µM
TGI (M14 melanoma): > 100 µM
TGI (M19-MEL melanoma): > 100 µM
TGI (MALME-3M melanoma): > 100 µM
TGI (MOLT-4 leukemia): > 100 µM
TGI (NCI-H226 lung): > 100 µM
TGI (NCI-H23 lung): > 100 µM
TGI (NCI-H460 lung): > 100 µM
TGI (NCI-H522 lung): > 100 µM
TGI (OVCAR-3 ovarian): > 100 µM
TGI (OVCAR-4 ovarian): > 100 µM
TGI (OVCAR-5 ovarian): > 100 µM
TGI (OVCAR-8 ovarian): > 100 µM
TGI (RPMI-8226 leukemia): > 100 µM
TGI (RXF 393 renal): > 100 µM
TGI (RXF-631 renal): > 100 µM
TGI (SF-268 CNS): > 100 µM
TGI (SF-295 CNS): > 100 µM
TGI (SF-539 CNS): > 100 µM
TGI (SK-MEL-2 melanoma): > 100 µM
TGI (SK-MEL-28 melanoma): > 100 µM
TGI (SK-MEL-5 melanoma): > 100 µM
TGI (SK-OV-3 ovarian): > 100 µM
TGI (SN12C renal): > 100 µM
TGI (SNB-19 CNS): > 100 µM
TGI (SNB-75 CNS): > 100 µM
TGI (SW-620 colon): > 100 µM
TGI (TK-10 renal): > 100 µM
TGI (U251 CNS): > 100 µM
TGI (UACC-257 melanoma): > 100 µM
TGI (UACC-62 melanoma): > 100 µM
TGI (UO-31 renal): > 100 µM
TGI (XF 498 CNS): > 100 µM

CC(=O)n1c(=O)c2cc3c(=O)n(-c4cccc(C#N)c4)c(=O)c3cc2c1=O
TGI (786-0 renal): > 100 µM
TGI (A498 renal): > 100 µM
TGI (A549 NSCLC): > 100 µM
TGI (ACHN renal): > 100 µM
TGI (CAKI-1 renal): > 100 µM
TGI (CCRF-CEM leukemia): > 100 µM
TGI (COLO 205 colon): > 100 µM
TGI (DLD-1 colon): > 100 µM
TGI (DMS 114 small cell lung): > 100 µM
TGI (DMS 273 small cell lung): > 100 µM
TGI (EKVX NSCLC): > 100 µM
TGI (HCC-2998 colon): > 100 µM
TGI (HCT-116 colon): > 100 µM
TGI (HCT-15 colon): > 100 µM
TGI (HL-60(TB) leukemia): > 100 µM
TGI (HOP-18 NSCLC): > 100 µM
TGI (HOP-62 NSCLC): > 100 µM
TGI (HOP-92 NSCLC): > 100 µM
TGI (HT29 colon): > 100 µM
TGI (IGROV1 ovarian): > 100 µM
TGI (K-562 leukemia): > 100 µM
TGI (KM12 colon): > 100 µM
TGI (KM20L2 colon): > 100 µM
TGI (LOX IMVI melanoma): > 100 µM
TGI (LXFL 529 NSCLC): > 100 µM
TGI (M14 melanoma): > 100 µM
TGI (M19-MEL melanoma): > 100 µM
TGI (MALME-3M melanoma): > 100 µM
TGI (NCI-H226 lung): > 100 µM
TGI (NCI-H23 lung): > 100 µM
TGI (NCI-H460 lung): > 100 µM
TGI (NCI-H522 lung): > 100 µM
TGI (OVCAR-3 ovarian): > 100 µM
TGI (OVCAR-4 ovarian): > 100 µM
TGI (OVCAR-5 ovarian): > 100 µM
TGI (OVCAR-8 ovarian): > 100 µM
TGI (RXF 393 renal): > 100 µM
TGI (RXF-631 renal): > 100 µM
TGI (SF-268 CNS): > 100 µM
TGI (SF-295 CNS): > 100 µM
TGI (SF-539 CNS): > 100 µM
TGI (SK-MEL-2 melanoma): > 100 µM
TGI (SK-MEL-28 melanoma): > 100 µM
TGI (SK-MEL-5 melanoma): > 100 µM
TGI (SK-OV-3 ovarian): > 100 µM
TGI (SN12C renal): > 100 µM
TGI (SNB-19 CNS): > 100 µM
TGI (SNB-75 CNS): 54.6 µM
TGI (SNB-78 CNS): > 100 µM
TGI (SW-620 colon): > 100 µM
TGI (TK-10 renal): > 100 µM
TGI (U251 CNS): > 100 µM
TGI (UACC-257 melanoma): > 100 µM
TGI (UACC-62 melanoma): > 100 µM
TGI (UO-31 renal): > 100 µM
